Consider 1 compound from ChEMBL document CHEMBL5705893, “Targeting the mitotic checkpoint for cancer therapy with NMS-P715, an inhibitor of MPS1 kinase” (Cancer Res, 2010).

Assay [1] can be described thus: Antiproliferative activity against human CL-11 cells assessed as inhibition of cell growth incubated for 72 hrs by celltiter-glo assay. The class given is functional, cell-based. The settings on record: CL-11, 72 h. Background: Cellular ATP, detected with luciferase, serves as a proxy for viable cell number.
A further assay deals with PC-3. In words: Antiproliferative activity against human PC-3 cells assessed as inhibition of cell growth incubated for 72 hrs by celltiter-glo assay. The class given is functional, cell-based. As to conditions: PC-3, 72 h.
A further assay deals with A-375. Put plainly: Antitumor activity against human A-375 cells xenografted in Athymic nu-nu nude mouse assessed as tumor growth inhibition at 100 mg/kg, po measured after 10 days. The assay is classed as functional. As to conditions: A-375, 240 h, time 10 day, read-out: TGI. A general note: Xenograft models place foreign cells or tissue in a host animal.
The subject of another assay is SF-539. In words: Antiproliferative activity against human SF-539 cells assessed as inhibition of cell growth incubated for 72 hrs by celltiter-glo assay. The assay is classed as functional, cell-based. As to conditions: SF-539, 72 h.
Assay [2] in a line: Antiproliferative activity against human DERL-7 cells assessed as inhibition of cell growth incubated for 72 hrs by celltiter-glo assay. The class given is functional, cell-based. The settings on record: DERL7, 72 h.
Assay [3] deals with Proto-oncogene tyrosine-protein kinase receptor Ret (Homo sapiens, UniProt P07949). In words: Inhibition of recombinant RET (unknown origin).
Chain of Proto-oncogene tyrosine-protein kinase receptor Ret (P07949 whole entry): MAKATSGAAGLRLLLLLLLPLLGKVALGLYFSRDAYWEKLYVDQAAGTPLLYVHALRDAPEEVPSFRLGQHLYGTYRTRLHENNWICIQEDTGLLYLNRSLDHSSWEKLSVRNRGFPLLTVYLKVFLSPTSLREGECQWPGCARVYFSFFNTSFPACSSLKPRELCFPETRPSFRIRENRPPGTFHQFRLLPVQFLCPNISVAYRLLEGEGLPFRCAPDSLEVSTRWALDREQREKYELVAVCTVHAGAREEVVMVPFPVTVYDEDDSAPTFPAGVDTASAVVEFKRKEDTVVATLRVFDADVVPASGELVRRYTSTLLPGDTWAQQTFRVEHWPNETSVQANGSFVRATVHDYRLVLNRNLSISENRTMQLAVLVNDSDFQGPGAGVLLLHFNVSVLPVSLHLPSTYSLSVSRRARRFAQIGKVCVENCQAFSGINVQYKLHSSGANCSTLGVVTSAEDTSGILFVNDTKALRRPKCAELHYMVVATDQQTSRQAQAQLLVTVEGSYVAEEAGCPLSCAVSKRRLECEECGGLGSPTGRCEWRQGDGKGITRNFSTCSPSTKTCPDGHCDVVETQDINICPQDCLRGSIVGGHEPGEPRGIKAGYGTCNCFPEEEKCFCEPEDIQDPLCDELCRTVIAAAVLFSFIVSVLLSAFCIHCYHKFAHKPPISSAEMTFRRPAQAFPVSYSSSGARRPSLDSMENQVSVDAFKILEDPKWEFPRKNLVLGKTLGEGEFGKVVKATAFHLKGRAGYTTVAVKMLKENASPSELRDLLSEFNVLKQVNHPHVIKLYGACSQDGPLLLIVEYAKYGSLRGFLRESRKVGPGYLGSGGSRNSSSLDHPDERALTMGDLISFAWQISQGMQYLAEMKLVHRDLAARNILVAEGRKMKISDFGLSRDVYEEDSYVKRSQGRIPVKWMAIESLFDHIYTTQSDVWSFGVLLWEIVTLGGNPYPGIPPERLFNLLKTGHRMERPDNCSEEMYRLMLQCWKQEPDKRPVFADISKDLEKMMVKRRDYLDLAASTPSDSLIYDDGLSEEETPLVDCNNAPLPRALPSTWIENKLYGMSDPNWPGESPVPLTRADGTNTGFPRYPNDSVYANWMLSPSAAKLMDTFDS
In a further assay the test system is M14. In words: Antiproliferative activity against human M14 cells assessed as inhibition of cell growth incubated for 72 hrs by celltiter-glo assay. The assay is classed as functional, cell-based. As to conditions: M14, 72 h.
The test system of a further assay is UACC-62. Put plainly: Antiproliferative activity against human UACC-62 cells assessed as inhibition of cell growth incubated for 72 hrs by celltiter-glo assay. The class given is functional, cell-based. The settings on record: UACC-62, 72 h.
In assay [4] the target is Mitotic checkpoint serine/threonine-protein kinase BUB1 (Homo sapiens, UniProt O43683). In words: Inhibition of recombinant BUB1 (unknown origin).
Chain of Mitotic checkpoint serine/threonine-protein kinase BUB1 (O43683 whole entry): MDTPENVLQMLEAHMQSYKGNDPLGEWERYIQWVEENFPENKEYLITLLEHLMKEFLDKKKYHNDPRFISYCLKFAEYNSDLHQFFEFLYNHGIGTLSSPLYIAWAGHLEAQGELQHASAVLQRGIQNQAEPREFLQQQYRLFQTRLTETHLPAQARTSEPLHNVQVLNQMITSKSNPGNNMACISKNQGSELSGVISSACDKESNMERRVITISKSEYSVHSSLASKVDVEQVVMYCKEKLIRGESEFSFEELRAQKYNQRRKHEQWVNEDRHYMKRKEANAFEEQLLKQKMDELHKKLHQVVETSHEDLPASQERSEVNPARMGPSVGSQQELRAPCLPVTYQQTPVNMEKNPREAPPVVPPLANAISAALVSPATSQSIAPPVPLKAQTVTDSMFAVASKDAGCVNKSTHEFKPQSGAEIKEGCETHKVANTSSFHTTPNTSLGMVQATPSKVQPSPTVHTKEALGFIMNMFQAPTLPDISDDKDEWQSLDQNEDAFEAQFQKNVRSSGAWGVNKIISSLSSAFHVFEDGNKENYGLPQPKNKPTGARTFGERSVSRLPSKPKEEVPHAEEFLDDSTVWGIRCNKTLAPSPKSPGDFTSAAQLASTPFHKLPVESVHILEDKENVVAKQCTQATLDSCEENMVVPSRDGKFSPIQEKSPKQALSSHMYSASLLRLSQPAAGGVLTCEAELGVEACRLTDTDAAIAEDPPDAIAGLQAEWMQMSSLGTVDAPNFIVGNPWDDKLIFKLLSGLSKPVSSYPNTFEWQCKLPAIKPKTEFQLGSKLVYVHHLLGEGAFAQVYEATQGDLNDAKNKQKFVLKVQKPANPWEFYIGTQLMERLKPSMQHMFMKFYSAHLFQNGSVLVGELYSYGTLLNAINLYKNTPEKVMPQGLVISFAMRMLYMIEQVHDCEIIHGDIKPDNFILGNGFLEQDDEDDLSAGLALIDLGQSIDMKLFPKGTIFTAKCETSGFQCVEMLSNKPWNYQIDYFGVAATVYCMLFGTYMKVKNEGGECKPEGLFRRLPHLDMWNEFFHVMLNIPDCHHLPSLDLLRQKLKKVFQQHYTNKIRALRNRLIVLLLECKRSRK
The next assay relates to SW480. In words: Antiproliferative activity against human SW480 cells assessed as inhibition of cell growth incubated for 72 hrs by celltiter-glo assay. The assay is classed as functional, cell-based. The settings on record: SW480, 72 h.
Assay [5] deals with Maternal embryonic leucine zipper kinase (Homo sapiens, UniProt Q14680). Put plainly: Inhibition of recombinant MELK (unknown origin).
Chain of Maternal embryonic leucine zipper kinase (Q14680 whole entry): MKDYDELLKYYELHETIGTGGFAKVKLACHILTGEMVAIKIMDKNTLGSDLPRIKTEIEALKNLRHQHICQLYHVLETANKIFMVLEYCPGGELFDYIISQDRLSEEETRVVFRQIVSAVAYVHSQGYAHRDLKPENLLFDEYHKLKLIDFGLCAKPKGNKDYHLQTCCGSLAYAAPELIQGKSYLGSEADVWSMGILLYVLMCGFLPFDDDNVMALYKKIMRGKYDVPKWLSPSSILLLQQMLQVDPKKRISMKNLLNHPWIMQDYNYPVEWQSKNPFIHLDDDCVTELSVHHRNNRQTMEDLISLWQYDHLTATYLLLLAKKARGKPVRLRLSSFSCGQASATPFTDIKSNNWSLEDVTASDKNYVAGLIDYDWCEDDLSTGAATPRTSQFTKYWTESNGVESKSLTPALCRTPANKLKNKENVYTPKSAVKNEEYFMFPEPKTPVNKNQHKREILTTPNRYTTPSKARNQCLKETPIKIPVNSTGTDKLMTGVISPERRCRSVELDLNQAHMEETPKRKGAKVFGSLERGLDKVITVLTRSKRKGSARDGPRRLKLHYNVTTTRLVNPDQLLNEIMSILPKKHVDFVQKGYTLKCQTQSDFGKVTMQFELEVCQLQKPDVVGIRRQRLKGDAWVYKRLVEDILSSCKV
Another assay relates to BT-549. Put plainly: Antiproliferative activity against human BT-549 cells assessed as inhibition of cell growth incubated for 72 hrs by celltiter-glo assay. The class given is functional, cell-based. As to conditions: BT-549, 72 h.
Assay [6] addresses Cyclin-dependent kinase 5/CDK5 activator 1 (Homo sapiens, UniProt Q00535).
Description: Inhibition of recombinant CDK5/P25 (unknown origin)
For the next assay, the system named is NCI-H226. Put plainly: Antiproliferative activity against human NCI-H226 cells assessed as inhibition of cell growth incubated for 72 hrs by celltiter-glo assay. The assay is classed as functional, cell-based. As to conditions: NCI-H226, 72 h.
Assay [7] addresses Mitogen-activated protein kinase 1 (Homo sapiens, UniProt P28482). In words: Inhibition of recombinant ERK2 (unknown origin).

Chain of Mitogen-activated protein kinase 1 (P28482 whole entry): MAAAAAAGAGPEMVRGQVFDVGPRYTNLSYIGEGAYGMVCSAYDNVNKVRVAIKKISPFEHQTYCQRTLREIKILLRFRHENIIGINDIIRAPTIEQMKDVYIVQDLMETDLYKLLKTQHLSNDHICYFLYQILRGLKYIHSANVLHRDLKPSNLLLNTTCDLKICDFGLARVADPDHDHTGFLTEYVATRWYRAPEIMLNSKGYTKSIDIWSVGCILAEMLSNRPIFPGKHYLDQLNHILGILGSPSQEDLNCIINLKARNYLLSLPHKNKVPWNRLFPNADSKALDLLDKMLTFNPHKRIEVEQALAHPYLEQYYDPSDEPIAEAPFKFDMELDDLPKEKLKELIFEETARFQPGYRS
Chain of Cyclin-dependent kinase 5/CDK5 activator 1 (Q00535 whole entry): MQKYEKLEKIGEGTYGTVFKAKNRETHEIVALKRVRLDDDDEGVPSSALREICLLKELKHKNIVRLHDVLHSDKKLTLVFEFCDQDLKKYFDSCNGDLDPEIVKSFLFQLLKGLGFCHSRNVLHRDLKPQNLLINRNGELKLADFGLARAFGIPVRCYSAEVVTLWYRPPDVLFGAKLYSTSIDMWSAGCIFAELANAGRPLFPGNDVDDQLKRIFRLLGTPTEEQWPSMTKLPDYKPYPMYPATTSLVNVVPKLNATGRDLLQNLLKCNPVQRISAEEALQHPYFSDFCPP
Chain of Cyclin-dependent kinase 5/CDK5 activator 1 (Q15078 whole entry, further chain): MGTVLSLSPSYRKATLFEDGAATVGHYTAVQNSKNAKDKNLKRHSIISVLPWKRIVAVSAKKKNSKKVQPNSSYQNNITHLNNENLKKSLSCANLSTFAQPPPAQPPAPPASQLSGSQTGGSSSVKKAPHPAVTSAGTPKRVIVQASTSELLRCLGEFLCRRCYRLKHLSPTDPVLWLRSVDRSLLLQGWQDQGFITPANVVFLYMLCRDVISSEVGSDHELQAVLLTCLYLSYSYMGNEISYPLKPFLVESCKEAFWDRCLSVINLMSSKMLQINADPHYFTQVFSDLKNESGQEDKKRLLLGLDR

A word on the IC50: it is the concentration needed to halve the response being measured. On to `CCc1cccc(CC)c1NC(=O)c1nn(C)c2c1CCc1cnc(Nc3ccc(C(=O)NC4CCN(C)CC4)cc3OC(F)(F)F)nc1-2`, for which the IC50 in assay [1] was 1.32 µM; with PC-3, 1.99 µM; in the assay with SF-539, 0.807 µM; in assay [2], 8.56 µM; in assay [3], greater than 10 µM; in the assay on M14, 0.698 µM. For the same compound, the IC50 in the assay with UACC-62 was 4.75 µM; in assay [4], greater than 10 µM; in the assay with SW480 it was 1.3 µM; in assay [5] it was 6.01 µM; with BT-549, 1.05 µM; in [6], greater than 10 µM. Moreover, the IC50 was 2.01 µM with NCI-H226 and greater than 10 µM in assay [7]. The inhibition in vivo at 100 mg/kg in the assay with A-375 was 43%.
